Results: patent US8216587B1, “Method of vaccination” (PCI Biotech AS, priority 1999, dated 2012)

How the values were obtained:
THX cells = assay: Photochemically induced GFP expression after pEGFP-N1-pLys transfection (flow cytometry); assay type: cell-based; conditions: for change in GFP expression with photosensitiser and light: pEGFP-N1-pLys complex plus photosensitiser and light, FIG. 5a, 5b; for fraction of the cells positive for GFP: AlPcS2a plus pEGFP-N1-pLys complex
Method: Plasmid-pLys complexes (charge ratio, 1.7) were prepared by gently mixing 5 μg plasmid (pEGFP-N1; Clontech Laboratories, Inc., Palo Alto, Calif.) in 75 μl of HBS with 5.3 μg pLys (MW 20700; Sigma, St. Louis, Mo.) in 75 μl of HBS. The solutions were incubated for 30 min at room temperature, diluted with culture medium and added to the cells.
THX cells were incubated with 20 μg/ml AlPcS2a for 18 hours at 37° C., washed and incubated in sensitizer-free medium for 3 hours before incubation with plasmid-pLys complexes for 2 hours. The pEGFP-N1/pLys treated THX cells were washed once and incubated for 2 hours in culture medium without additions before exposure to light. The cells were incubated at 37° C. for 2 days, subcultured and further incubated for an additional 5 days before analysis of GFP expression by flow cytometry.
The cells were trypsinised, centrifuged, resuspended in 400 μl of culture medium and filtered through a 50 μm mesh nylon filter. The cells were then analysed in a FACStar plus flow cytometer (Becton Dickinson). Green Fluorescent Protein (GFP) was measured through a 510-530 nm filter after excitation with an argon laser (200 mW) tuned on 488 nm. AlPcS2a was measured through a 650 nm longpass filter after excitation with a krypton laser (50 mW) tuned on 351-356 nm. Cell doublets were discriminated from single cells by gating on the pulse width of the GFP fluorescence signal. The data were analysed with PC Lysys II software (Becton Dickinson).
The expression of GFP was analysed by flow cytometry (FIGS. 5a and b) and fluorescence microscopy (data not shown). […] The fraction of the cells that was positive for this reporter molecule increased from 1% at no light treatment to 50% after a 5-min light exposure. […] Consequently, in a light-directed manner, PCI can substantially increase the efficiency of transfection of a functional gene to THX cells.

NHIK 3025 cells = assay: PCI-induced release of endocytosed HRP into the cytosol; assay type: cell-based, human; conditions: 3.2 μg/ml TPPS2a and 1 mg/ml HRP for 18 h, then light; FIG. 4
Method: In this experiment NHIK 3025 cells (carcinoma cells in situ from human cervix) were treated with the photosensitising agent TPPS2a (3.2 μg/ml) and 1 mg/ml HRP for 18 hours. HRP activity was measured according to the procedure described in Steinman et al., J. Cell Biol., 68: 665-687, 1976. Cytosol was separated from cytosol-free cell corpses by electropermeabilisation and a density centrifugation technique (Berg et al., Int. J. Cancer 59: 814-822, 1994).

BL2-G-E6 cells = assay: Photochemically induced relocalisation of fluorescein-labelled ras peptide (fluorescence microscopy); assay type: cell-based, mouse; conditions: peptide plus AlPcS2a; after a 4-min exposure to red light
Method: Two different light sources were used for treatment of the cells, both consisting of a bank of 4 fluorescent tubes.
The cells were analysed by fluorescence microscopy as described in Berg. K., et al., Biochem. Biophys. Acta., 1370: 317-324, 1998. For analysis of fluorescein-labelled molecules the microscope was equipped with a 450-490 nm excitation filter, a 510 nm dichroic beam splitter and a 510-540 nm band pass emission filter.
BL2-G-E6 cells were incubated with 30 μg/ml of the fluorescein-labelled p21^ras-derived peptide for 18 hours followed by 20 μg/ml AlPcS2a for 18 hours and 1 hour in drug-free medium before exposure to red light.
To evaluate PCI for cytosolic delivery of cancer-specific peptides, a fluorescein-labelled p21^ras peptide encompassing residues 5-21 and containing a Val^12 mutation (G12V) was used (Gjertsen, M. K., et al., Int. J. Cancer, 72: 784-790, 1997). […] Similar effects were not observed in cells exposed to the fluorescein-labelled ras peptide and light only (data not shown).

Oc1cccc(-c2c3nc(c(-c4cccc(O)c4)c4ccc([nH]4)c(-c4cccc(O)c4)c4nc(c(-c5cccc(O)c5)c5ccc2[nH]5)C=C4)C=C3)c1 [3-THPP]
change in GFP expression with photosensitiser and light (THX cells): only a minor increase

Horseradish Peroxidase [HRP]
fraction of endocytosed HRP released into the cytosol (NHIK 3025 cells): > 60%

aluminum phthalocyanine with 2 sulfonate groups on adjacent phenyl rings [AlPcS2a]
fraction of the cells positive for GFP (THX cells; after a 5-min light exposure): 50%
fraction of the cells positive for GFP (THX cells; no light treatment): 1%
change in GFP expression with photosensitiser and light (THX cells): strong increase
localisation after light exposure (BL2-G-E6 cells): located diffusely in the cytoplasm
